# Legend:
# [1] = tested on: rat brain receptor (opiate); assay: Rat brain binding assay with tritiated βh-EP as primary ligand (Example 4); conditions: for IC50: 50% inhibiting concentration; for Relative Potency: receptor binding, βh-Endorphin = 100
# Method: Opiate activity was measured in the rat brain binding assay in which tritiated βh -EP is used as primary ligand (Ferrara et al., Biochem. Biophys. Res. Comm. 89, 786 [1979]).
# [2] = cited from earlier work
# opiate receptor = assay: Opiate receptor binding assay, rat brain membrane fraction (Example 2); conditions: for IC50: 50% inhibiting concentration, [3H-Tyr27]-βh-EP as primary ligand; for Relative Potency: receptor binding, βh-Endorphin = 100
# Method: The opiate receptor binding assay was performed by the method of Pasternak et al., Mol. Pharmacol. 11, 340 (1975) with modifications using a membrane fraction from rat brain homogenate. [^3 H-Tyr^27 ]-βh -EP was used as primary ligand and synthetic βh -EP as standard competing ligand.
# [3] = Analgesic assay, tail-flick method, intracerebroventricular injection; type: in vivo, male ICR mice; conditions: for Relative Potency: analgesic potency, βh-Endorphin = 100 (run in the same group); for AD50: intracerebroventricular injection, mice, tail-flick, 95% confidence limit in parentheses
# Method: (§1) Opiate activity was measured from the depression of electrically-stimulatedcontractions of guinea pig ileum preparations, see Kosterlitz et al., J. Pharmacol. 39, 398 (1970) and Doneen et al., Biochem. Biophys. Res. Commun. 74, 656 (1977). For analgesic assay, male ICR mice weighing 25-30 g (Simonsen Laboratories, Gilroy, CA) were used. Analgesic activity was assessed by the tail-flick method of D'Amour and Smith as described by Li et al., Biochem. Biophys. Res. Commun. 85, 795 (1978).
# ^a AD50 in nmole (95% confidence limit) by
# intracerebroventricular injection.
# [4] = tested on: guinea pig ileum preparations; assay: Opiate activity: depression of electrically-stimulated contractions of guinea pig ileum preparations; type: cell-based; conditions: for IC50: guinea pig ileum assay; for Relative Potency: guinea pig ileum, βh-Endorphin = 100
# Method: as §1
# [5] = βh-EP = 100; cited from earlier work
# [6] = tested on: guinea pig ileum preparations; conditions: βh-EP = 100; cited from earlier work
# [7] = tritiated βh-EP as primary ligand
Compound,"IC50 [1, 7] [nM]",Relative Potency [1],IC50 (opiate receptor) [nM],Relative Potency (opiate receptor),Relative Potency [3],IC50 [4] [nM],Relative Potency [4],also measured
"[Gln^8, Gly^31 ]-βh -EP-Gly-Gly-NH2 [[Gln^8,Gly^31]-βh -Gly--Gly--NH2]",0.07,929,,,,,,potency in the binding assay relative to βh-EP (in words) [1]: nine times that of βh -EP
"β-endorphin: the structure corresponding to positions 61-91 of β-lipotropin, namely β-endorphin (YGGFMTSEKSQTPLVTLFKNAIIKNAYKKGE; Beta-endorphin; UniProt P01189 237-267, looked up)",,,,,,,,analgesic activity (in words) ([2]; intravenous route): potent analgesic activity by the intravenous route
[Gly^31 ]-βh -endorphinamide [[Gly^31]-βh -EP--NH2],,,0.3,250,225,64,200,potency in the receptor assay relative to the parent peptide (in words) (opiate receptor; Table 4): almost three times more potent; AD50 [3]: 0.016 (0.008-0.032) nmole
βh -Endorphin: synthetic βh -EP as standard competing ligand [reference compound],0.65,100,0.75,100,100,128,100,
[Gly^31 ]-βh -EP-Gly-NH2 [[Gly^31]-βh -EP--Gly--NH2],0.19,342,,,,,,activity in rat brain binding assay (in words) [1]: a further increase in activity
"CSCC[C@H](NC(=O)[C@H](Cc1ccccc1)NC(=O)CNC(=O)CNC(=O)[C@@H](N)Cc1ccc(O)cc1)C(=O)O [methionine-enkephalin, reference compound]",,,,,,,,"activity in rat brain binding assay (in words) [1]: low activity; activity in rat brain binding assay, relative to βh-EP [1, 7]: 5 % of βh -EP"
[CH3 (CH2)4 NH2^31 ]-βh -EP [[CH(CH2)4 NH2^31]-βh -EP],0.33,197,,,,,,
"[Phe^27, Gly^31 ]-βh -EP",,,,,,,,"relative potency previously obtained, in vivo assay [5]: 119; analgesic potency relative to the parent ([2]; intravenous assay route): about 1.48 times that of the parent; relative potency previously obtained, guinea pig ileum assay [6]: 128"
[Gly^31 ]-βh -EP,,,0.59,127,83,76,168,AD50 [3]: 0.077 (0.038-0.17) nmole
[Gly^31 ]-βh -endorphinylglycine [[Gly^31]-βh -EP--Gly--OH],,,0.49,153,217,97,132,AD50 [3]: 0.043 (0.031-0.057) nmole
[Gly^31 ]-βh -EP-Gly-Gly-NH2 [[Gly^31]-βh -EP--Gly--Gly--NH2],0.15,433,,,,,,potency in the binding assay relative to βh-EP (in words) [1]: over four times the potency of βh -EP

# — US4250087A, “Carboxyl terminus analogs of β-endorphin” (Hoffmann-La Roche Inc., priority 1979, dated 1981)
